Data reported in ChEMBL document CHEMBL3091364, “Benzyloxybenzylammonium chlorides: Simple amine salts that display anticonvulsant activity” (Bioorg Med Chem, 2013).

Experiments:
[1] = target: T1, Muscarinic acetylcholine receptor M2 (Homo sapiens) (UniProt P08172); assay: Inhibition of muscarinergic M2 receptor (unknown origin) at 10 uM relative to control
T1 sequence (whole entry): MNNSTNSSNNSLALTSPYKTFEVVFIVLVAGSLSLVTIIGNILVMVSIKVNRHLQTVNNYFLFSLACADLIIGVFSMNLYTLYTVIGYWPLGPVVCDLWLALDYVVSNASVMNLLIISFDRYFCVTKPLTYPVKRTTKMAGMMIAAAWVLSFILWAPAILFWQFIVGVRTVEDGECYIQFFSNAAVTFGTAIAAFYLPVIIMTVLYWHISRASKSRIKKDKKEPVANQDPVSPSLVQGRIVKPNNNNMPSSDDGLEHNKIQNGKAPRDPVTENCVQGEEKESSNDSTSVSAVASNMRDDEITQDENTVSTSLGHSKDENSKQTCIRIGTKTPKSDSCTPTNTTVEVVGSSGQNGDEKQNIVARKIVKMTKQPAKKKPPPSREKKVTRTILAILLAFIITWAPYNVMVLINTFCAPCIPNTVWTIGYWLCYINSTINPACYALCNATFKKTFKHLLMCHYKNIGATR

[2] = target: T2, Muscarinic acetylcholine receptor M1 (Homo sapiens) (UniProt P11229); assay: Inhibition of muscarinergic M1 receptor (unknown origin) at 10 uM relative to control
T2 sequence (whole entry): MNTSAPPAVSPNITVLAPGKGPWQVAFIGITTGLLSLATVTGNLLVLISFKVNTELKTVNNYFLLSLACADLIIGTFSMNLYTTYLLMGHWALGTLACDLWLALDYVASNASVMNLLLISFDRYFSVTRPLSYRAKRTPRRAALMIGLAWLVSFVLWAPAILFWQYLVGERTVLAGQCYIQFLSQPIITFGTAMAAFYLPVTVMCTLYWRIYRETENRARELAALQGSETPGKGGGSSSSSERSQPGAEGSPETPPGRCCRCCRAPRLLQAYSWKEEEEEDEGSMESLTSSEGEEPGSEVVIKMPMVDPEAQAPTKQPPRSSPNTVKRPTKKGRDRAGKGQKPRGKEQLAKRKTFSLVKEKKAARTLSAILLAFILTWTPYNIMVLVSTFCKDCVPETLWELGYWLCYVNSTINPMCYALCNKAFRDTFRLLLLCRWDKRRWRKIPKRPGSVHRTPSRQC

[3] = target: Histamine H2 receptor (Homo sapiens) (UniProt P25021); assay: Inhibition of histamine H2 receptor (unknown origin) at 10 uM relative to control
[4] = target: Histamine H1 receptor (Homo sapiens) (UniProt P35367); assay: Inhibition of histamine H1 receptor (unknown origin) at 10 uM relative to control
[5] = target: Mu-type opioid receptor (Homo sapiens) (UniProt P35372); assay: Inhibition of mu opioid receptor (unknown origin) at 10 uM relative to control
[6] = target: D(1B) dopamine receptor (Homo sapiens) (UniProt P21918); assay: Inhibition of dopaminergic D5 receptor (unknown origin) at 10 uM relative to control
[7] = target: T3, Alpha-2C adrenergic receptor (Homo sapiens) (UniProt P18825); assay: Inhibition of adrenergic alpha-2C receptor (unknown origin) at 10 uM relative to control
T3 sequence (whole entry): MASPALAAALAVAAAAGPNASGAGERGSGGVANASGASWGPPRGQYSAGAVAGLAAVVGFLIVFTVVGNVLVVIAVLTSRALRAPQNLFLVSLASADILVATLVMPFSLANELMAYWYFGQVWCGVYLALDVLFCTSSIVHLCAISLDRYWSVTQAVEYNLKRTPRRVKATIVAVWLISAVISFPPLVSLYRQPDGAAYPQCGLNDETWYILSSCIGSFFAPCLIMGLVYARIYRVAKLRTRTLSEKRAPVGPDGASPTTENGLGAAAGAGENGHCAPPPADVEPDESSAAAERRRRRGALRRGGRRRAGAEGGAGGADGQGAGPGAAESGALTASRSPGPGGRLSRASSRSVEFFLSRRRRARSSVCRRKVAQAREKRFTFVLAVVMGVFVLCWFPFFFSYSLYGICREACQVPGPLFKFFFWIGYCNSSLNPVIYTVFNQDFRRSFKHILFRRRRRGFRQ

[8] = target: T4, Alpha-2B adrenergic receptor (Homo sapiens) (UniProt P18089); assay: Inhibition of adrenergic alpha-2B receptor (unknown origin) at 10 uM relative to control
T4 sequence (whole entry): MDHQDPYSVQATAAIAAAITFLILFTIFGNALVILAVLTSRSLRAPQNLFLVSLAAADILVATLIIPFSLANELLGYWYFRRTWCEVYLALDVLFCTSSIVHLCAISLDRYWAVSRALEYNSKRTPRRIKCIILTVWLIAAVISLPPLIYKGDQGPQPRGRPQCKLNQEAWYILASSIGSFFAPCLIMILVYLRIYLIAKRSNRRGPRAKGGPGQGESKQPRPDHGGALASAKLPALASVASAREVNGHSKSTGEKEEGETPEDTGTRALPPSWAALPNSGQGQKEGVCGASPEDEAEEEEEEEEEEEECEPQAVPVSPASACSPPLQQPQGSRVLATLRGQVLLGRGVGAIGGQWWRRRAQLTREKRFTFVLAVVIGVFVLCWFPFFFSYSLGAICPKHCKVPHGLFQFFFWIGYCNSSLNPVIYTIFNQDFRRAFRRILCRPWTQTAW

[9] = target: 5-hydroxytryptamine receptor 6 (Homo sapiens) (UniProt P50406); assay: Inhibition of 5-HT6 receptor (unknown origin) at 10 uM relative to control
[10] = target: 5-hydroxytryptamine receptor 7 (Homo sapiens) (UniProt P34969); assay: Inhibition of 5-HT7 receptor (unknown origin) at 10 uM relative to control
[11] = target: 5-hydroxytryptamine receptor 5A (Homo sapiens) (UniProt P47898); assay: Inhibition of 5-HT5A receptor (unknown origin) at 10 uM relative to control
[12] = target: T5, 5-hydroxytryptamine receptor 2C (Homo sapiens) (UniProt P28335); assay: Inhibition of 5-HT2C receptor (unknown origin) at 10 uM relative to control
T5 sequence (whole entry): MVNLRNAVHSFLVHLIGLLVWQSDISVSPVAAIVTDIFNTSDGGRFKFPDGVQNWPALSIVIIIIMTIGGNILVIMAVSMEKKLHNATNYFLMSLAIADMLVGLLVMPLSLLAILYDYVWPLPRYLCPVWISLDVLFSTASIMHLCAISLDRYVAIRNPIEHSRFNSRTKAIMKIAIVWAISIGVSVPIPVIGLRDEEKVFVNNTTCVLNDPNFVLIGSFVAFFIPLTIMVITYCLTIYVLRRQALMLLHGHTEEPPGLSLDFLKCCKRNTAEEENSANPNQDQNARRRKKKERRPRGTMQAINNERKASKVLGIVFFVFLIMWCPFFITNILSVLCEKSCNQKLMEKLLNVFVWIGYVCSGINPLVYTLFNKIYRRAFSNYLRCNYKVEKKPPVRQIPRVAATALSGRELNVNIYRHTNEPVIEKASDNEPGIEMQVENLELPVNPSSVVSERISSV

Sequence of 5-hydroxytryptamine receptor 5A (Homo sapiens) (P47898 whole entry): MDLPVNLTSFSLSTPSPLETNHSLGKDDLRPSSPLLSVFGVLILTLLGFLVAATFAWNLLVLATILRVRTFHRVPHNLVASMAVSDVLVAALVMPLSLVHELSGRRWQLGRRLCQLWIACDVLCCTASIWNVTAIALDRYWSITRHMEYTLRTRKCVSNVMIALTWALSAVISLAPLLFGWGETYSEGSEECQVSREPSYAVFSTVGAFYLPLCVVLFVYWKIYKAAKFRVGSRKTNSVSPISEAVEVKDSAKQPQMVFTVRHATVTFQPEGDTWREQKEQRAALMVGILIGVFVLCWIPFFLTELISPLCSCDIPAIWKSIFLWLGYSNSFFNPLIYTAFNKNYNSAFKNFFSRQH
Sequence of 5-hydroxytryptamine receptor 6 (Homo sapiens) (P50406 whole entry): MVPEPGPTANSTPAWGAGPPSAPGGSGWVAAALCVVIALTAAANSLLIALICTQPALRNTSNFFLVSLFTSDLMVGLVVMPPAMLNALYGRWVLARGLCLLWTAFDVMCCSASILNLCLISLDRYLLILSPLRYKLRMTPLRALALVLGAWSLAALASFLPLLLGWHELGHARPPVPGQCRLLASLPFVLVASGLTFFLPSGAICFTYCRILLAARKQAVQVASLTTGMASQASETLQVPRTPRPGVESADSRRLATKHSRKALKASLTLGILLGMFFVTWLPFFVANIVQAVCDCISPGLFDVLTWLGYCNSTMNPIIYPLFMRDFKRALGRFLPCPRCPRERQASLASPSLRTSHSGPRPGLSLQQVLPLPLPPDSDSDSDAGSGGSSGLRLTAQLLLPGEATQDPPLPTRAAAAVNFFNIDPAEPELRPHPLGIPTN
Sequence of D(1B) dopamine receptor (Homo sapiens) (P21918 whole entry): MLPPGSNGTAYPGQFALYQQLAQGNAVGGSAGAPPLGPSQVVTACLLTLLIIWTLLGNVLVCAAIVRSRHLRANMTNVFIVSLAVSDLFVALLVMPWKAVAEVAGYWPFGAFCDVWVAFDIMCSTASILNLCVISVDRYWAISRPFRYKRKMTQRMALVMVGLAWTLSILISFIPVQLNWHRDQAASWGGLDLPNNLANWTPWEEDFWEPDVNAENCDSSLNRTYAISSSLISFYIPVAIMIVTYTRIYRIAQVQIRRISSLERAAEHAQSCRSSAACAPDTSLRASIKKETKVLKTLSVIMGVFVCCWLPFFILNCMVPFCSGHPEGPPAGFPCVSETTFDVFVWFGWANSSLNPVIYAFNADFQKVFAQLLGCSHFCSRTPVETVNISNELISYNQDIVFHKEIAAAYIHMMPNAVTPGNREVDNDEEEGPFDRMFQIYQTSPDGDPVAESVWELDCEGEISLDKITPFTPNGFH
Sequence of Mu-type opioid receptor (Homo sapiens) (P35372 whole entry): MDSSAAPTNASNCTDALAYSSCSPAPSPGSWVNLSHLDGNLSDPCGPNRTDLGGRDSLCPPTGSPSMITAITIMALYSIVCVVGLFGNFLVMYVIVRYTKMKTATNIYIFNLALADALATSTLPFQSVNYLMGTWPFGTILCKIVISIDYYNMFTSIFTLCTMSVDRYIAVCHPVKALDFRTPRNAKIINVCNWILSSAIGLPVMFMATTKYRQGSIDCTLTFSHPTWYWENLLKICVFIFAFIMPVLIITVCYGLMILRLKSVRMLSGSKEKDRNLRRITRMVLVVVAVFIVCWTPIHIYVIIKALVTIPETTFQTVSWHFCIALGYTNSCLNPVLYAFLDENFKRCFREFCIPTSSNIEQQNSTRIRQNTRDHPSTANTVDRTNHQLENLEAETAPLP
Sequence of Histamine H2 receptor (Homo sapiens) (P25021 whole entry): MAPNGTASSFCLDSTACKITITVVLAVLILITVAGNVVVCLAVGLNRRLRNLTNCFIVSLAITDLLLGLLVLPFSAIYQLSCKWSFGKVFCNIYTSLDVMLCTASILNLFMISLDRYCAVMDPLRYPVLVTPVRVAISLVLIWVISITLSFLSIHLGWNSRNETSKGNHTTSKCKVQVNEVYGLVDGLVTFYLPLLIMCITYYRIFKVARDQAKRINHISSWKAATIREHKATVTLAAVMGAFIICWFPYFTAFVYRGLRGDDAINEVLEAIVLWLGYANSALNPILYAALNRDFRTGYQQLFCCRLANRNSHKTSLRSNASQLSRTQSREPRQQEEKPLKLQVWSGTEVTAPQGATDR
Sequence of 5-hydroxytryptamine receptor 7 (Homo sapiens) (P34969 whole entry): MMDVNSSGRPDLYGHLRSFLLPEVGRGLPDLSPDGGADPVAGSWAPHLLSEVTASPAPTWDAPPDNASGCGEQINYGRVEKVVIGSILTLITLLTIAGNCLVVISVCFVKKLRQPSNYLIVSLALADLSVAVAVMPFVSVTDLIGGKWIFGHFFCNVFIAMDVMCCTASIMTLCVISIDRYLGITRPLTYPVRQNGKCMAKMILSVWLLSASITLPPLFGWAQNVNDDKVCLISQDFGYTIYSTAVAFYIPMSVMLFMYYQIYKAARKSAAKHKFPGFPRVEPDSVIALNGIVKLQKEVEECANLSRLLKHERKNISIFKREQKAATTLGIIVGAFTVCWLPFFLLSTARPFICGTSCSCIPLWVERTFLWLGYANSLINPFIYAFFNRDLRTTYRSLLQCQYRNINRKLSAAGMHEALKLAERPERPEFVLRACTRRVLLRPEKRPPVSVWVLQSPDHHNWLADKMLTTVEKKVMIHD
Sequence of Histamine H1 receptor (Homo sapiens) (P35367 whole entry): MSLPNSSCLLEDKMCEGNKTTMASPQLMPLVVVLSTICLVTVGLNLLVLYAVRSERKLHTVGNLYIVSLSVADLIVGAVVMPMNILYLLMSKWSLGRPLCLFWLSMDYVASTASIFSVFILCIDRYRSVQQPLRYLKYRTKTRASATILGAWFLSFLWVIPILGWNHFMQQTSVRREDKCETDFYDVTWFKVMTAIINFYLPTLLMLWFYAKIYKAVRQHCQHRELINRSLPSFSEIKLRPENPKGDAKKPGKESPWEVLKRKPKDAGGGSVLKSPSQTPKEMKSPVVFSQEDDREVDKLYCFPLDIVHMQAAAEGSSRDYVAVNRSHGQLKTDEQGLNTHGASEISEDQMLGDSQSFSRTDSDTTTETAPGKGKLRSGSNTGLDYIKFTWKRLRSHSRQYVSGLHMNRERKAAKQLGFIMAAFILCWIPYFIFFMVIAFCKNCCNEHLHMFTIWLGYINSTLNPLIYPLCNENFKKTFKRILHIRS

Row | inhibition [1] | inhibition [2] | inhibition [3] | inhibition [4] | inhibition [5] | inhibition [6] | inhibition [7] | inhibition [8] | inhibition [9] | inhibition [10] | inhibition [11] | inhibition [12] | SMILES
1 | 1.9% | 26.6% | -2.7% | 14.7% | -5.6% | 3.5% | 42.2% | 49.9% | 8.9% | 29.3% | -1.8% | 4.2% | Cl.NCc1ccc(OCc2ccc(OC(F)(F)F)cc2)cc1
2 | 3.8% | 67.3% | 5.8% | 15.6% | -4.8% | 3.9% | 40.2% | 29.5% | 22% | 38.7% | -0.1% | 39.7% | Cl.NCc1ccc(OCc2ccccc2OC(F)(F)F)cc1
3 | 4.5% |  | 4.2% | 12.1% | 2.8% | 0.4% | 46.6% | 44.3% | 34.3% | 43.6% | 0.2% | 33% | Cl.NCc1ccc(OCc2cccc(OC(F)(F)F)c2)cc1
4 | 12.6% | 18.6% | 29.7% | -5.8% | -5.5% | 1% | 40.2% | 37% | 18.1% | 67.7% | 8.5% | 11.1% | Cl.NCc1ccc(OCc2ccc(F)cc2)cc1
5 | 10.9% | 18.8% | 16.8% | 0.3% | -2.3% | 6.4% | 52.1% | 51.6% | 50.5% | 45.4% | 36.6% | 13.2% | Cl.NCc1ccc(OCc2ccc(Cl)cc2)cc1

Continued, molecule first:

Row | SMILES | inhibition [1] | inhibition [2] | inhibition [3] | inhibition [4] | inhibition [5] | inhibition [6] | inhibition [7] | inhibition [8] | inhibition [9] | inhibition [10] | inhibition [11] | inhibition [12]
6 | Cl.NCc1ccc(OCc2ccccc2)cc1 | -2.5% | 28.9% | -4% | 7.6% | -5.8% | 1.9% | 47.6% | 27.3% | 26.9% | 56.3% | 1.2% | 38.2%
7 | Cl.NCc1ccc(OCc2cccc(F)c2)cc1 | -6% | 37.5% |  | 5.2% | -8.6% | -0.5% |  | 51.3% | 44.8% | 59.1% |  | 41.2%
8 | Cl.NCc1ccc(OCc2cccc(Cl)c2)cc1 | 13.1% | 17.6% | -7.4% | 1.4% | -2.2% | -1.6% | 81.1% | 72% | 52.4% | -1.9% | 44.9% | -4.3%
9 | Cl.NCc1ccc(OCc2ccccc2F)cc1 | -7.5% | 42% | 1.6% | 6.7% |  | 2.3% | 33% | 30.9% | 21.3% | 43.5% | -5.2% | 32.6%
